Laboratory results taken from patent US9255093B2, “Polycyclic HERG activators” (NOVARTIS AG, priority 2014, dated 2016).
Marks after values point to notes of the source that are not given here.

What follows are molecules tested against T1, hERG (human ether-a-go-go-related gene) potassium channel (Homo sapiens, UniProt Q12809) (assay: not given). Settings: not given.
T1 sequence (Q12809 whole entry): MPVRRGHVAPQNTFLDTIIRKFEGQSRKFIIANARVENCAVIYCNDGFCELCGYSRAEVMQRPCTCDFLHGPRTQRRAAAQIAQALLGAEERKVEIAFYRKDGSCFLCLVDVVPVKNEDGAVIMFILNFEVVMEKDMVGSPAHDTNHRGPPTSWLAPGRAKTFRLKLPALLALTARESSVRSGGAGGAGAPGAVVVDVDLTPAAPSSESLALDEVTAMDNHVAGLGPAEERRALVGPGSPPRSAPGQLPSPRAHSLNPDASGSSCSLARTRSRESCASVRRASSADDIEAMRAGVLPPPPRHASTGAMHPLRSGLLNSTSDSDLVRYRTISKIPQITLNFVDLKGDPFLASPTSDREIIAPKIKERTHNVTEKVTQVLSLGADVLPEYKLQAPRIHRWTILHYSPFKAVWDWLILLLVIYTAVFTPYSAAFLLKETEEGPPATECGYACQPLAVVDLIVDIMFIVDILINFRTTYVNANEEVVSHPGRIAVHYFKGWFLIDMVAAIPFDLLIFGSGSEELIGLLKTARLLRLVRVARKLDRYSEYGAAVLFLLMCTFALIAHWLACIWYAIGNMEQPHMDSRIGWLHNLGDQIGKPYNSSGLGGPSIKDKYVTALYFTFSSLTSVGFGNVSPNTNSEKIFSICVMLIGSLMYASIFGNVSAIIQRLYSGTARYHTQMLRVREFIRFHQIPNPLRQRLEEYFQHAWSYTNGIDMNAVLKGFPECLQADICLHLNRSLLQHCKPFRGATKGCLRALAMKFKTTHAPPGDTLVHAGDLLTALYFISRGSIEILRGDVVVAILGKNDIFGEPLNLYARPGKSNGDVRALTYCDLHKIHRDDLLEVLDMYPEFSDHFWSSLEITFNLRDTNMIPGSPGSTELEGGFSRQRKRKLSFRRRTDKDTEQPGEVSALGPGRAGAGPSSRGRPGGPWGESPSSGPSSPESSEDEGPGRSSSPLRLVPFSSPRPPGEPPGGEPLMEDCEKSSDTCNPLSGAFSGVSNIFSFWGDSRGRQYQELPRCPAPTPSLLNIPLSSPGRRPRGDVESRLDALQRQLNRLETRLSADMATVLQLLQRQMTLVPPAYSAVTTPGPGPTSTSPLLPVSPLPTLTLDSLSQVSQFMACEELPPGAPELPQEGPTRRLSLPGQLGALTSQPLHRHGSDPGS

With `O=c1cc(C(F)(F)F)c2ccc(NCc3ccc4cc(-c5nn[nH]n5)oc4c3)cc2o1` [Example 222] the “% change@TL7@10 uM” value was 41%.

What follows are molecules tested against T1, hERG (human ether-a-go-go-related gene) potassium channel (assay: QPatch automated patch-clamp hERG activator 4-concentration EC50 assay). Settings: increase of hERG tail current amplitude at 7 second (TL7); 3.3 uM (footnote *); hERG stably expressed in CHO cells.
From the text: A patch-clamp assay on the QPatch© automated patch clamp system was employed to assesses whether compounds functionally enhance the cardiac delayed rectifier hERG (human ether-a-go-go-related gene) potassium channel. The assay measures electric the current passing through hERG channels that are heterologously expressed in a stable Chinese hamster ovary (CHO) cell line. Channels are opened by a hERG-specific voltage protocol and the compound effect is directly characterized by the activation of the hERG current. EC50 values are obtained from fitting 4-concentration dose response curves (1.1, 3.3, 10 & 30 uM) in triplicates at 4 different sections of the voltage protocol (steady state current amplitude at +10 mV, at +30 mV, peak tail current amplitude and tail current amplitude at 7 second).

In the case of `FC(F)(F)Oc1ccc(NCc2ccc3c(-c4nn[nH]n4)coc3c2)cc1Br` [Example 233], the “% change@TL7 (*@3.3 uM)” value was 202* %.
`COc1c(F)cc(NCc2ccc3cc(-c4nn[nH]n4)oc3c2)cc1Br` [Example 1] was tested, and the “% change@TL7 (*@3.3 uM)” value was 166* %.
For `FC(F)Oc1c(Br)cc(NCc2ccc3cc(-c4nn[nH]n4)oc3c2)cc1Br` [Example 4], the “% change@TL7 (*@3.3 uM)” value was 155* %.

Same assay, conditions: increase of hERG tail current amplitude at 7 second (TL7); 10 uM; hERG stably expressed in CHO cells

In order of rising “% change@TL7@10 uM” value:
1. COc1ccc(NCc2ccc3cc(C(=O)O)oc3c2)cc1C(F)(F)F [Example 117]  28%
2. CCCc1ccc(NC(C)c2ccc3oc(-c4nnn[nH]4)cc3c2)cc1Cl (stereo not drawn) [Example 84]  29%
3. O=C(O)c1cc2ccc(CNc3cc(C(F)(F)F)cc(C(F)(F)F)c3)cc2o1 [Example 116]  31%
4. CC(Nc1ccc2c(c1)OC(F)(F)O2)c1ccc2oc(-c3nnn[nH]3)cc2c1 (stereo not drawn) [Example 83]  36%
5. COc1cc(NCc2ccc3cc(-c4nn[nH]n4)oc3c2)cc(OC)c1OC [Example 62]  43%
6. O=C(O)c1cc2ccc(CNc3ccc(C(F)(F)F)cn3)cc2o1 [Example 112]  53%
7. O=C(O)c1cc2ccc(CNc3ccc(SC(F)(F)F)cc3)cc2o1 [Example 113]  53%
8. FC(F)Oc1ccc(NCc2ccc3c(C(F)(F)F)c(-c4nnn[nH]4)oc3c2)cc1C(F)(F)F [Example 60]  58%
9. Brc1cccc(NCc2ccc3cc(-c4nn[nH]n4)oc3c2)c1 [Example 59]  61%
10. Fc1ccc(NCc2cc3oc(-c4nnn[nH]4)cc3cc2Cl)cc1OC(F)(F)F [Example 9]  78%
11. CCOc1ccc(NCc2ccc3c(C(F)(F)F)c(-c4nnn[nH]4)oc3c2)cc1C(F)(F)F [Example 56]  88%
12. Cc1c(-c2nnn[nH]2)oc2cc(CNc3ccc(OC(F)(F)F)c(Br)c3)ccc12 [Example 53]  95%
13. CCCc1ccc(NCc2ccc3oc(-c4nnn[nH]4)cc3c2)cc1F [Example 79]  101%
14. O=C(O)c1cc2ccc(CNc3ccc4c(c3)OCCO4)cc2o1 [Example 105]  105%
15. CCOc1c(Cl)cc(NCc2ccc3c(C(F)(F)F)c(-c4nnn[nH]4)oc3c2)cc1Cl [Example 49]  106%
16. Cc1cc2cc(NCc3cc4oc(-c5nnn[nH]5)cc4cc3Cl)cc(Cl)c2o1 [Example 188]  108%
17. O=C(O)c1cc2ccc(CNc3ccc(C(=O)C(F)(F)F)cc3)cc2o1 [Example 103]  112%
18. Clc1ccc(NCc2cc3cc(-c4nnn[nH]4)oc3cc2Cl)cc1Cl [Example 139]  112%
19. CC(Nc1ccc(OC(F)(F)F)c(Cl)c1)c1ccc2oc(-c3nnn[nH]3)cc2c1 (stereo not drawn) [Example 77]  118%
20. CCCc1ccc(NCc2ccc3oc(-c4nnn[nH]4)cc3c2)cc1OC(F)(F)F [Example 76]  120%
21. FC(F)(F)Oc1cc(Cl)cc(NCc2ccc3oc(-c4nnn[nH]4)cc3c2)c1 [Example 75]  123%
22. N#CCOc1ccc(NCc2ccc3cc(-c4nnn[nH]4)oc3c2Cl)cc1C(F)(F)F [Example 210]  134%
23. Cc1nsc2ccc(NCc3ccc4cc(-c5nn[nH]n5)oc4c3)cc12 [Example 209]  137%
24. FC(F)(F)Oc1ccc(NCc2ccc3cc(-c4nn[nH]n4)oc3c2)cc1Cl [Example 46]  139%
25. CCCc1c(C)cc(NCc2cc3oc(-c4nnn[nH]4)cc3cc2Cl)cc1Cl [Example 220]  148%
26. Fc1cc(NCc2ccc3cc(-c4nn[nH]n4)oc3c2)ccc1OC(F)(F)F [Example 43]  148%
27. O=C(O)c1cc2ccc(CNc3ccc(S(F)(F)(F)(F)F)cc3)cc2o1 [Example 99]  157%
28. FC1(F)Oc2ccc(NCc3ccc4cc(-c5nn[nH]n5)oc4c3)cc2O1 [Example 40]  161%
29. FC(F)(F)Oc1ccc(NCc2ccc3c(C(F)(F)F)c(-c4nnn[nH]4)oc3c2)cc1C(F)(F)F [Example 38]  164%
30. CCCc1ccc(NCc2cc3oc(-c4nnn[nH]4)cc3cc2F)cc1F [Example 190]  167%
31. Fc1cc2cc(-c3nnn[nH]3)oc2cc1CNc1ccc(C(F)(F)F)c(Cl)c1 [Example 196]  169%
32. FC(F)(F)Oc1ccc(NCc2cc3oc(-c4nnn[nH]4)cc3cc2Cl)cc1Br [Example 36]  174%
33. N#Cc1cc(NCc2ccc3cc(-c4nnn[nH]4)oc3c2Cl)ccc1OC(F)F [Example 202]  174%
34. Fc1ccc(NCc2ccc3oc(-c4nnn[nH]4)cc3c2)cc1OC(F)(F)F [Example 72]  176%
35. CCCc1ccc(NCc2ccc3oc(C(=O)O)cc3c2)cc1C(F)(F)F [Example 122]  184%
36. Clc1ccc(NCc2ccc3cc(-c4nn[nH]n4)oc3c2)cc1 [Example 33]  192%
37. FC(F)(F)c1ccc(NCc2cc3oc(-c4nnn[nH]4)cc3cc2Cl)cc1C(F)(F)F [Example 14]  196%
38. Cc1cc2cc(NCc3ccc4cc(-c5nn[nH]n5)oc4c3)cc(Cl)c2o1 [Example 194]  205%
39. O=C(O)c1cc2ccc(CNc3ccc(OC(F)(F)F)c(C(F)(F)F)c3)cc2o1 [Example 92]  215%
40. CCCc1ccc(NCc2cc3oc(-c4nnn[nH]4)cc3cc2Cl)cc1C(F)(F)F [Example 31]  218%
41. Fc1cc2cc(-c3nnn[nH]3)oc2cc1CNc1ccc(Cl)c(C(F)(F)F)c1 [Example 150]  218%
42. FC(F)(F)COc1ccc(NCc2ccc3cc(-c4nnn[nH]4)oc3c2Cl)cc1C(F)(F)F [Example 187]  230%
43. Fc1cc2cc(-c3nnn[nH]3)oc2cc1CNc1ccc(Cl)c(Br)c1 [Example 180]  231%
44. O=C(O)c1cc2cc(F)c(CNc3ccc(OCC(F)(F)F)c(C(F)(F)F)c3)cc2o1 [Example 231]  239%
45. FC1(F)Oc2ccc(NCc3ccc4oc(-c5nnn[nH]5)cc4c3)cc2O1 [Example 67]  247%
46. Clc1ccc(NCc2ccc3cc(-c4nn[nH]n4)oc3c2)cc1Br [Example 182]  249%
47. N#CCOc1ccc(NCc2cc3oc(-c4nnn[nH]4)cc3cc2Cl)cc1C(F)(F)F [Example 29]  258%
48. CSc1cccc(NCc2ccc3cc(-c4nn[nH]n4)oc3c2)c1 [Example 28]  260%
49. FC(F)(F)COc1ccc(NCc2ccc3cc(-c4nn[nH]n4)oc3c2)cc1C(F)(F)F [Example 27]  261%
50. FC(F)(F)Oc1ccc(NCc2cc3oc(-c4nnn[nH]4)cc3cc2Cl)cc1C(F)(F)F [Example 6]  264%
51. CSc1ccc(NCc2ccc3cc(-c4nn[nH]n4)oc3c2)cc1C(F)(F)F [Example 26]  267%
52. O=C(O)c1cc2ccc(CNc3ccc4c(c3)OC(F)(F)O4)cc2o1 [Example 89]  270%
53. O=C(O)c1cc2ccc(CNc3ccc(OC(F)(F)F)c(Cl)c3)cc2o1 [Example 88]  274%
54. Fc1cc2cc(-c3nnn[nH]3)oc2cc1CNc1ccc(C(F)(F)F)c(C(F)(F)F)c1 [Example 158]  277%
55. CCOc1ccc(NCc2ccc3cc(-c4nn[nH]n4)oc3c2)cc1Br [Example 172]  284%
56. Fc1cc2cc(-c3nnn[nH]3)oc2cc1CNc1ccc(Cl)c(Cl)c1 [Example 208]  285%
57. Fc1c(CNc2ccc(OCC(F)(F)F)c(C(F)(F)F)c2)ccc2cc(-c3nnn[nH]3)oc12 [Example 154]  325%
58. O=C(O)c1cc2ccc(CNc3ccc(SC(F)(F)F)c(Cl)c3)cc2o1 [Example 87]  326%
59. FC(F)(F)c1cc(NCc2cc3oc(-c4nnn[nH]4)cc3cc2Cl)cc(C(F)(F)F)c1Br [Example 189]  350%
60. FC(F)COc1ccc(NCc2cc3oc(-c4nnn[nH]4)cc3cc2Cl)cc1C(F)(F)F [Example 157]  350%
61. FC(F)Oc1ccc(NCc2cc3oc(-c4nnn[nH]4)cc3cc2Br)cc1C(F)(F)F [Example 156]  356%
62. Fc1cc2cc(-c3nnn[nH]3)oc2cc1CNc1cc(C(F)(F)F)c(Br)c(C(F)(F)F)c1 [Example 159]  388%
63. O=C(O)c1cc2ccc(CNc3cc(Br)c(Br)c(Br)c3)cc2o1 [Example 85]  397%
64. CC(C)Oc1ccc(NCc2cc3oc(-c4nnn[nH]4)cc3cc2Cl)cc1C(F)(F)F [Example 18]  409%
65. CCCc1ccc(NCc2ccc3cc(-c4nnn[nH]4)oc3c2)cc1C(F)(F)F [Example 16]  521%
